According to patent US8410126B2, “Pyrimidine inhibitors of PKTK2” (Boehringer Ingelheim International GmbH, priority 2009, dated 2013):

molecular target: T1, PTK2 (Homo sapiens, UniProt Q05397); test: PTK2 enzyme test Assay 1 (DELFIA, poly-Glu-Tyr substrate, PT60 antibody); assay type: biochemical; settings: Assay 1 (values without *); 1 h pre-incubation, 50 μM ATP mix, final DMSO 2%
T1 construct: purchased Invitrogen PV3832
Experimental: This test uses active PTK2 enzyme (Invitrogen Code PV3832) and poly-Glu-Tyr (4:1, Sigma P-0275) as the kinase substrate. The kinase activity is detected through the phosphorylation of the substrate in a DELFIA™ assay. The phosphorylated substrate is detected with the europium-labelled phosphotyrosine antibody PT60 (Perkin Elmer, No.: AD00400).
In order to determine concentration-activity curves with PTK2-inhibitors the compounds are serially diluted in 10% DMSO/H2O and 10 μL of each dilution are placed in each well of a 96-well microtitre plate (clear plate with a U-shaped base, Greiner No. 650101) (the inhibitors are tested in duplicates) and mixed with 10 μL/well of PTK2 kinase (0.01 μg/well). PTK2 kinase has been correspondingly diluted beforehand with kinase dilution buffer (20 mM TRIS/HCl pH 7.5, 0.1 mM EDTA, 0.1 mM EGTA, 0.286 mM sodium orthovanadate, 10% glycerol with the addition of freshly prepared BSA (fraction V, 1 mg/mL) and DTT (1 mM)). The test compound and the PTK2 kinase are pre-incubated for 1 h at RT and shaken at 500 revolutions per min. The reaction is started by the addition of 10 μL/well poly (Glu,Tyr) substrate (25 μg/well poly (Glu, Tyr), 0.05 μg/well biotinylated poly (Glu,Tyr) dissolved in 250 mM TRIS/HCl pH 7.5, 9 mM DTT)—the final concentration of DMSO is 2%. Then 20 μL of ATP Mix (30 mM TRIS/HCl pH 7.5, 0.02% Brij, 0.2 mM sodium orthovanadate, 10 mM magnesium acetate, 0.1 mM EGTA, 1× phosphatase inhibitor cocktail 1 (Sigma, No.: P2850), 50 μM ATP (Sigma, No.: A3377; 15 mM stock solution)) are added. After 1 h of kinase reaction (the plates are shaken at 500 rpm), the reaction is stopped by the addition of 12 μL/well 100 mM EDTA, pH 8.0 and shaken for a further 5 min at RT (500 rpm). 55 μL of the reaction mixture are transferred into a streptavidin plate (Strepta Well High Bind (transparent, 96-well) made by Roche, No.: 11989685001) and incubated for 1 h at RT (shaking at 500 rpm). Then the microtitre plate is washed three times with 200 μL/well D-PBS (Invitrogen, No. 14190). 100 μL of a solution containing DELFIA Eu-N1 Anti-Phosphotyrosine PT60 antibody (Perkin Elmer, No.: AD0040, diluted 1:2000 in DELFIA test buffer (Perkin Elmer, No.: 1244-111)) is then added and the mixture is incubated for 1 h at RT (shaking at 500 rpm). Then the plate is washed three times with 200 μL/well DELFIA washing buffer (Perkin Elmer, No.: 1244-114), 200 μL/well strengthening solution (Perkin Elmer, No.: 1244-105) are added and the mixture is incubated for 10 min at RT (shaking at 300 rpm).
The time-delayed europium fluorescence is then measured in a microtitre plate reader (VICTOR^3, Perkin Elmer). […] Wells that contain test buffer instead of enzyme are used as a control of the background kinase activity.
The IC50 values are determined from analyses of the concentration activity by iterative calculation with the aid of a sigmoid curve analysis algorithm (FIFTY, based on GraphPAD Prism Version 3.03) with a variable Hill coefficient.

T1 sequence (Q05397 whole entry): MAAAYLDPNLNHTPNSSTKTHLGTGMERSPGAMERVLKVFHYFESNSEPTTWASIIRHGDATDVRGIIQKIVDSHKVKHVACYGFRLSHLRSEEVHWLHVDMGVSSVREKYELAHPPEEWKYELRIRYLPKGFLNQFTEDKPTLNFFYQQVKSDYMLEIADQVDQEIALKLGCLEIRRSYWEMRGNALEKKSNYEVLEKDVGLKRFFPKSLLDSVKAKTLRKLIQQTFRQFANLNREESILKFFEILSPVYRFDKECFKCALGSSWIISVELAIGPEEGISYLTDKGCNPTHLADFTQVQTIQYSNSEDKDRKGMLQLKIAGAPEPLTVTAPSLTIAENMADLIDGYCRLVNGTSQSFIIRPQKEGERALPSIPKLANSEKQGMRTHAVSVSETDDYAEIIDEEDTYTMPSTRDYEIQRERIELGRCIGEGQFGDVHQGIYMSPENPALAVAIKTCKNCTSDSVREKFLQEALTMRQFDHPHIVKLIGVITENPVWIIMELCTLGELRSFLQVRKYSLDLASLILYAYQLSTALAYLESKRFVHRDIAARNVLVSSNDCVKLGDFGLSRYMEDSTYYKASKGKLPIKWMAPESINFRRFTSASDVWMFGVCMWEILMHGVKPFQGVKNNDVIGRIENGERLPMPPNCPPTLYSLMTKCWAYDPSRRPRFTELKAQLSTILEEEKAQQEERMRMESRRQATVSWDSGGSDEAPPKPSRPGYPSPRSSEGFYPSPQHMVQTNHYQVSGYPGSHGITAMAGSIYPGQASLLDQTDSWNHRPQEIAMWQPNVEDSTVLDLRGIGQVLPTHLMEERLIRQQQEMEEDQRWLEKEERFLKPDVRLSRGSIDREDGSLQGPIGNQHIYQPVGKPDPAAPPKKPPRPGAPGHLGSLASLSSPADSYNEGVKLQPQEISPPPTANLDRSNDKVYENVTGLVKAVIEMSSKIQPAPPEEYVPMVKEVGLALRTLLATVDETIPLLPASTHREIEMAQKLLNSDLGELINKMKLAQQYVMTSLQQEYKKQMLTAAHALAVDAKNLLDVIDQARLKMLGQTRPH

Row | Structure (SMILES) | IC50 [nM]
1 | COCCN1CCC(NC(=O)c2ccc(Nc3ncc(C(F)(F)F)c(N[C@@H]4Cc5ccccc5[C@H]4NC(C)=O)n3)c(OC)c2)CC1 [Example I-13] | 3
2 | COc1cc(CN2CCOCC2)ccc1Nc1ncc(C(F)(F)F)c(N[C@@H]2Cc3ccccc3[C@H]2NC(C)=O)n1 [Example I-38] | 2
3 | CNCc1ccc(Nc2ncc(C(F)(F)F)c(N[C@@H]3Cc4ccccc4[C@H]3NS(C)(=O)=O)n2)c(OC)c1 [Example I-9] | 2
4 | COc1cc(C(=O)NC2CCCN(C)C2)c(F)cc1Nc1ncc(C(F)(F)F)c(N[C@@H]2Cc3ccccc3[C@H]2N(C)S(C)(=O)=O)n1 (stereo partly drawn) [Example I-47] | 3
5 | COc1cc(C(=O)NC2CCCN(C)C2)ccc1Nc1ncc(C(F)(F)F)c(N[C@@H]2Cc3ccccc3[C@H]2NC(C)=O)n1 (stereo partly drawn) [Example I-14] | 2
6 | COc1cc(C(=O)NC2CCN(C)CC2)c(F)cc1Nc1ncc(C(F)(F)F)c(N[C@@H]2Cc3ccccc3[C@H]2N(C)S(C)(=O)=O)n1 [Example I-46, 2-fluoro-4-{4-[(1R,2R)-1-(methanesulphonyl-methyl-amino)-indan-2-ylamino]-5-trifluoromethyl-pyrimidin-2-ylamino}-5-methoxy-N-(1-methyl-piperidin-4-yl)-benzamide] | 2
7 | COc1cc(N2CCN(C)CC2)ccc1Nc1ncc(C(F)(F)F)c(N[C@@H]2Cc3ccccc3[C@H]2NC(C)=O)n1 [Example I-26] | 2
8 | COc1cc(C(=O)NC2CCN(C)CC2)ccc1Nc1ncc(C(F)(F)F)c(N[C@@H]2Cc3ccccc3[C@H]2NS(C)(=O)=O)n1 [Example I-8] | 2
9 | COc1cc(C(=O)NCCN(C)C)c(F)cc1Nc1ncc(C(F)(F)F)c(N[C@@H]2Cc3ccccc3[C@H]2N(C)S(C)(=O)=O)n1 [Example I-48] | 1
10 | COCCNC(=O)c1ccc(Nc2ncc(C(F)(F)F)c(N[C@@H]3Cc4ccccc4[C@H]3NC(C)=O)n2)c(OC)c1 [Example I-16] | 2
11 | CNC(=O)c1ccc(Nc2ncc(Cl)c(N[C@@H]3Cc4ccccc4[C@H]3N(C)S(C)(=O)=O)n2)c(OC)c1 [Example I-34] | 7
12 | COc1cc(N2CCN(C)CC2)ccc1Nc1ncc(C(F)(F)F)c(N[C@@H]2Cc3ccccc3[C@H]2N(C)S(C)(=O)=O)n1 [Example I-39, N-((1R,2R)-2-{2-[2-methoxy-4-(4-methyl-piperazin-1-yl)-phenylamino]-5-trifluoromethyl-pyrimidin-4-ylamino}-indan-1-yl)-N-methyl-methanesulphonamide] | 3
13 | COc1cc(C(=O)NC2CCC(N3CCOCC3)CC2)ccc1Nc1ncc(C(F)(F)F)c(N[C@@H]2Cc3ccccc3[C@H]2NC(C)=O)n1 (stereo partly drawn) [Example I-19] | 3
14 | CNC(=O)c1ccc(Nc2ncc(C(F)(F)F)c(N[C@@H]3Cc4ccccc4[C@H]3NC(C)=O)n2)c(OC)c1 [Example I-18] | 2
15 | CONC(=O)c1ccc(Nc2ncc(C(F)(F)F)c(N[C@@H]3Cc4ccccc4[C@H]3NC(C)=O)n2)c(OC)c1 [Example I-17] | 2
16 | CCN1CCC(NC(=O)c2ccc(Nc3ncc(C(F)(F)F)c(N[C@@H]4Cc5ccccc5[C@H]4NC(C)=O)n3)c(OC)c2)CC1 [Example I-11] | 2
17 | COc1cc(N2CCN(CC(=O)N(C)C)CC2)ccc1Nc1ncc(C(F)(F)F)c(N[C@@H]2Cc3ccccc3[C@H]2N(C)S(C)(=O)=O)n1 [Example I-40] | 3
18 | COc1cc(C(=O)NC2CCN(C)CC2)ccc1Nc1ncc(C(F)(F)F)c(N[C@@H]2Cc3ccccc3[C@H]2NC(C)=O)n1 [Example I-1] | 2
19 | COCCNC(=O)c1ccc(Nc2ncc(C(F)(F)F)c(N[C@@H]3Cc4ccccc4[C@H]3N(C)S(C)(=O)=O)n2)c(OC)c1 [Example I-45] | 2

Second part, the compound after the results:

Row | IC50 [nM] | Structure (SMILES)
20 | 0.76 | COc1cc(Nc2ncc(C(F)(F)F)c(N[C@@H]3Cc4ccccc4[C@H]3N(C)S(C)(=O)=O)n2)ccc1C(=O)NC1CCN(C)CC1 [Example I-64]
21 | 0.83 | COc1cc(C(=O)NOCCN(C)C)ccc1Nc1ncc(C(F)(F)F)c(N[C@@H]2Cc3ccccc3[C@H]2N(C)S(C)(=O)=O)n1 [Example I-59]
22 | 8 | COc1cc(C(=O)NC2CCOCC2)c(F)cc1Nc1ncc(C(F)(F)F)c(N[C@@H]2Cc3ccccc3[C@H]2N(C)S(C)(=O)=O)n1 [Example I-50]
23 | 6 | CNC(=O)c1cc(OC)c(Nc2ncc(C(F)(F)F)c(N[C@@H]3Cc4ccccc4[C@H]3N(C)S(C)(=O)=O)n2)cc1F [Example I-49]
24 | 0.98 | COc1cc(N2CCNCC2)ccc1Nc1ncc(C(F)(F)F)c(N[C@@H]2Cc3ccccc3[C@H]2N(C)S(C)(=O)=O)n1 [Example I-70, N-{(1R,2R)-2-[2-(2-methoxy-4-piperazin-1-yl-phenylamino)-5-trifluoromethyl-pyrimidin-4-ylamino]-indan-1-yl}-N-methyl-methanesulphonamide]
25 | 2 | COc1cc(Nc2ncc(C(F)(F)F)c(N[C@@H]3Cc4ccccc4[C@H]3N(C)S(C)(=O)=O)n2)ccc1NC(C)=O [Example I-92]
26 | 3 | COc1cc(N2CCN(C3COC3)CC2)ccc1Nc1ncc(C(F)(F)F)c(N[C@@H]2Cc3ccccc3[C@H]2N(C)S(C)(=O)=O)n1 [Example I-57]
27 | 1 | COc1cc(C(=O)NC2CCN(C)CC2)c(C)cc1Nc1ncc(Cl)c(N[C@@H]2Cc3ccccc3[C@H]2N(C)S(C)(=O)=O)n1 [Example I-68]
28 | 2 | COc1cc(C(=O)NCCN(C)C)c(C)cc1Nc1ncc(Cl)c(N[C@@H]2Cc3ccccc3[C@H]2N(C)S(C)(=O)=O)n1 [Example I-97]
29 | 1 | COc1cc(C(=O)NC2CCN(C)CC2)ccc1Nc1ncc(Br)c(N[C@@H]2Cc3ccccc3[C@H]2N(C)S(C)(=O)=O)n1 [Example I-98, 4-{5-bromo-4-[(1R,2R)-1-(methanesulphonyl-methyl-amino)-indan-2-ylamino]-pyrimidin-2-ylamino}-3-methoxy-N-(1-methyl-piperidin-4-yl)-benzamide]
30 | 4 | COc1cc(C(=O)NCCN(C)C)c(Cl)cc1Nc1ncc(C(F)(F)F)c(N[C@@H]2Cc3ccccc3[C@H]2N(C)S(C)(=O)=O)n1 [Example I-58]
31 | 3 | COc1cc(N2CCN(CC3CC3)CC2)ccc1Nc1ncc(C(F)(F)F)c(N[C@@H]2Cc3ccccc3[C@H]2N(C)S(C)(=O)=O)n1 [Example I-56]
32 | 6 | CNC(=O)c1ccc(Nc2ncc(C(F)(F)F)c(N[C@@H]3c4ccccc4C[C@H]3NS(C)(=O)=O)n2)c(OC)c1 [Example I-95]
33 | 0.84 | COc1cc(C(=O)NCCN(C)C)c(C)cc1Nc1ncc(C(F)(F)F)c(N[C@@H]2Cc3ccccc3[C@H]2N(C)S(C)(=O)=O)n1 [Example I-54]
34 | 1 | COc1cc(C(=O)NCCN(C)C)ccc1Nc1ncc(C(F)(F)F)c(N[C@@H]2Cc3ccccc3[C@H]2N(C)S(C)(=O)=O)n1 [Example I-52]
35 | 11 | COc1nc(C)ccc1Nc1ncc(C(F)(F)F)c(N[C@@H]2Cc3ccccc3[C@H]2N(C)S(C)(=O)=O)n1 [Example I-96]
36 | 1 | COc1cc(C(=O)NC2CCN(C)CC2)c(Cl)cc1Nc1ncc(C(F)(F)F)c(N[C@@H]2Cc3ccccc3[C@H]2N(C)S(C)(=O)=O)n1 [Example I-60, 2-chloro-4-{4-[(1R,2R)-1-(methanesulphonyl-methyl-amino)-indan-2-ylamino]-5-trifluoromethyl-pyrimidin-2-ylamino}-5-methoxy-N-(1-methyl-piperidin-4-yl)-benzamide]
37 | 1 | COCCN1CCN(c2ccc(Nc3ncc(C(F)(F)F)c(N[C@@H]4Cc5ccccc5[C@H]4N(C)S(C)(=O)=O)n3)c(OC)c2)CC1 [Example I-84]
38 | 1 | COCCN1CCC(NC(=O)c2ccc(Nc3ncc(C(F)(F)F)c(N[C@@H]4Cc5ccccc5[C@H]4N(C)S(C)(=O)=O)n3)c(OC)c2)CC1 [Example I-65]
39 | 3 | COc1cc(NC(C)=O)ccc1Nc1ncc(C(F)(F)F)c(N[C@@H]2Cc3ccccc3[C@H]2N(C)S(C)(=O)=O)n1 [Example I-90]
